System: rabbit skeletal myofibrils (approximately 90% fast fibers)
Assay: Activation of fast skeletal myofibrils (PUMA coupled-enzyme ATPase assay)
Format: biochemical
Details: concentration at which the compound increased the enzymatic activity by 40%; calcium level pCa25
Protocol: Preparation of fast skeletal myofibrils: Rabbit skeletal myofibrils were prepared based upon the method of Herrmann et al. (Biochem. 32(28):7255-7263(1993). Myofibrils were prepared from rabbit psoas muscle purchased from Pel-Freez Biologicals (Arkansas) within 2 days of ordering, stored on ice. Minced muscle was homogenized in 10 volumes of ice-cold “standard” buffer (50 mM Tris, pH 7.4, 0.1 M KOAc, 5 mM KCl, 2 mM dithiothreitol (DTT), 0.2 mM phenylmethylsulfonyl fluoride (PMSF), 10 μM leupeptin, 5 μM pepstatin, and 0.5 mM sodium azide) containing 5 mM ethylenediaminetetraacetic acid (EDTA) and 0.5% Triton X-100 using an Omni-Macro homogenizer. Myofibrils were recovered by low speed centrifugation (3000 rpm for 10 minutes) and washed 2 times in the Triton X-100 containing buffer to ensure removal of cellular membrane. Following the Triton washes, myofibrils were washed 3 times in “standard” buffer containing 2 mM magnesium acetate. A final wash in assay buffer (12 mM piperazine-1,4-bis(2-ethanesulfonic acid) (PIPES), pH 6.8, 60 mM KCl, 1 mM DTT) was performed and brought to 10% sucrose for flash freezing in liquid nitrogen and storage at −80° C.
Activation of Fast Skeletal Myofibrils: Fast fiber activators were identified by Measuring the enzymatic activity of muscle myofibril preparations using the proprietary PUMA (trademark) (see, e.g., U.S. Pat. Nos. 6,410,254, 6,743,599, 7,202,051, and 7,378,254) assay system. Myofibril preparations consisted of rabbit skeletal muscle (approximately 90% fast fibers) that had been mechanically homogenized and washed with a detergent (Triton X-100) to remove cellular membranes. This preparation retained all of the sarcomeric components in a native conformation and the enzymatic activity was still regulated by calcium. Compounds were tested using a myofibril suspension and a level of calcium sufficient to increase enzymatic activity of the myofibrils to 25% of their maximal rate (termed pCa25). Enzymatic activity was tracked via a pyruvate kinase and lactate dehydrogenase-coupled enzyme system. This assay regenerates myosin-produced ADP into ATP by oxidizing NADH, producing an absorbance change at 340 nm. The buffering system was 12 mM PIPES, 2 mM MgCl2, 1 mM DTT at pH 6.8 (PM12 buffer).

AC1.4 [µM]	Structure (SMILES)
1.202	CCC1(CCO)C(=O)NC2(COC2)c2ccc(C#N)cc21 (stereo not drawn) [compound 165]
4.986	CC1(C)NC(=O)C(C)(Cn2cccn2)c2nc(C#N)ccc21 (stereo not drawn) [134b]
1.987	CCC1(CC)C(=O)NC2(COC2)c2ncc(C#N)cc21 [compound 161]
0.763	CCC1(CC)C(=O)NC(C)(C)c2c(OC)cc(OC)cc21 [compound 50]
5.040	CC1(C)NC(=O)C(C)(C)c2cc(C#N)cnc21 [compound 58]
0.283	CCC1(C)C(=O)NC2(COC2)c2ccc(OC(F)F)nc21 (stereo not drawn) [compound 146]
1.437	CCC1(CCOC)C(=O)NC2(COC2)c2ccc(C#N)nc21 (stereo not drawn) [compound 112]
0.830	CCC1(CC)C(=O)NC2(COC2)c2ncc(Cl)nc21 [compound 68]
0.596	CCC1(CCCO)C(=O)NC(C)(C)c2ccc(Br)cc21 (stereo not drawn) [compound 54]
0.522	CC1(C)NC(=O)C(C)(Cn2cccn2)c2nc(Cl)ccc21 (stereo not drawn) [compound 70]
7.955	CC1(C)NC(=O)C(c2ccccc2)c2ccccc21 (stereo not drawn) [compound 138]
0.474	CCC1(CCO)C(=O)NC(C)(C)c2ccc(Br)cc21 (stereo not drawn) [compound 115]
0.321	C#CCC1(C)C(=O)NC(C)(C)c2ccc(C#N)nc21 (stereo not drawn) [compound 111]
2.365	CC(C)(O)CC1(C)C(=O)NC2(COC2)c2ccc(Cl)cc21 (stereo not drawn) [compound 137, 6-chloro-4-(2-hydroxy-2-methylpropyl)-4-methyl-2H-spiro[isoquinoline-1,3′-oxetan]-3(4H)-one]
<0.077	CCC1(CC)C(=O)NC(C)(C)c2ccc(Cl)cc21 [compound 48]
0.223	C=CCC1(C)C(=O)NC(C)(C)c2ccc(Cl)nc21 (stereo not drawn) [compound 76]
4.313	CCC1(CCO)C(=O)NC2(COC2)c2ccc(OC(F)F)nc21 (stereo not drawn) [compound 105]
3.478	CC1(C)NC(=O)C(C)(Cc2cn[nH]c2)c2nc(C#N)ccc21 (stereo not drawn) [compound 110]

AC1.4 [µM]	Structure (SMILES)
0.203	CCC1(CC(F)F)C(=O)NC2(COC2)c2ccc(C(F)F)nc21 (stereo not drawn) [compound 88]
0.581	CCC1(CC(F)F)C(=O)NC2(COC2)c2ccc(OC)nc21 (stereo not drawn) [compound 145]
2.502	CN(c1ccccc1)C1C(=O)NC(C)(C)c2ccc(Br)cc21.Cl (stereo not drawn) [compound 66]
2.566	CC1(C)C(=O)NC2(COC2)c2ccc(F)cc21 [compound 157]
11.374	CC1(C)NC(=O)C(C)(CCO)c2cc(Cl)cnc21 (stereo not drawn) [compound 159]
<0.077	CCC1(Cc2ccccc2Cl)C(=O)NC(C)(C)c2ccc(Br)cc21 (stereo not drawn) [compound 79]
2.377	CC1(C)C(=O)NC2(COC2)c2ccc(C#N)nc21 [compound 142]
8.474	CCC1(CCO)C(=O)NC2(COC2)c2ccc(C)nc21 (stereo not drawn) [compound 102]
1.730	CC1(C)C(=O)NC2(COC2)c2ccc(C(F)F)nc21 [compound 169]
1.590	CC1(C)NC(=O)C(C)(C)c2nc(C#N)cnc21 [compound 153]
1.174	CC1(Cn2cccn2)C(=O)NC2(COC2)c2ccc(Cl)cc21 (stereo not drawn) [compound 75]
0.112	CCC1(Cc2cccc(Cl)c2)C(=O)NC(C)(C)c2ccc(Br)cc21 (stereo not drawn) [compound 80]
1.052	CCN(CC)C1C(=O)NC(C)(C)c2ccc(Br)cc21.Cl (stereo not drawn) [compound 65]
2.555	CC1(C)C(=O)NC2(COC2)c2ccc(Cl)nc21 [compound 90]
1.080	CC1(C)NC(=O)C(C)(Cn2cccn2)c2nc(C#N)ccc21 (stereo not drawn) [compound 107]
0.093	CC1(C)NC(=O)C(C)(C)c2cc(Br)ccc21 [compound 51]
0.711	CCC1C(=O)NC(C)(C)c2ccc(Br)cc21 (stereo not drawn) [compound 53]
0.051	CCC1(CC)C(=O)NC2(COC2)c2ccc(Cl)cc21 [compound 43]

From patent US11479561B2, “Tetrahydroisoquinoline derivatives” (Cytokinetics, Incorporated, priority 2016, dated 2022)
